Measurements as given in patent US4514330A, “Carbon-7-substituted atinomycin D analogue” (Trustees of Boston University, priority 1983, dated 1985).
≈ marks a conversion by molar mass, not a printed value.

Legend:
DNA = experiment: Thermal denaturation of DNA (ΔTm), stabilization of DNA helical structure on drug binding; design: species or system calf thymus; details: for DNA melting profile / ΔTm character of the DNA complex: thermal denaturation, words
Experimental: Thermal denaturation studies were carried out according to the procedure described in J. Med. Chem., Vol. 24, p. 1052 (1981). The ΔTm values in Table II give a measure of stabilization of DNA helical structure as a consequence of drug binding.
^a ΔTm = m of DNAdrug complex minus m of DNA.
Concentraiton of drug, 1.4 × 10^-4 M; of DNA (P), 1.4 ×
10^-3 M in 0.01 M phosphate buffer (pH 7.0), 5 × 10^-3 M in
EDTA and 5% dimethyl sulfoxide.
^d Highest dose tested. These values are derived at high temperatur
(67°-75° C.) and may not always correlate with the results
of other DNA-binding studies (e.g., absorptiometric or circular dichroic).
Melting points were obtained with a Thomas-Hoover melting point apparatus at a heating rate of 2° C./min. Column chromatography was accomplished with silica gel powder (Baker No. 3405, 60-20 mesh) or acid alumina (Woelm grade 1). Limited gel-filtration work was done on Sephadex LH-20, particle size 25-100 μm (Pharmacia Fine Chemicals). Thin-layer chromatography was performed on silica gel plates (E. M. Laboratories, Inc.). Solvent systems used were (A) butanol-formic acid-H2 O (75:13:12), (B) EtOAc-acetone (3:1), and (C) Cifferri, the organic phase of the mixture EtOAc-MeOH-H2 O (20:1:20). High-performance liquid chromatography was carried out on a Varian Model 5020 gradient liquid chromatograph equipped with CD-111L chromatography data system and fitted with Varian reversed-phase C18 column with isocratic solvent systems, CH3 -CN-5 mM NH4 OAc buffer, pH 6.4 (68:32 or 62:38), pressure 80-140 atm, flow rate 1.5 mL/min, with UV-visible variable and fixed wavelength dual detectors at 254 and 466 nm. Spectra were determined on the following instruments: IR spectra were obtained with a Perkin-Elmer Model 237 Infra Cord with KBr micropellets or chloroform solutions; UV-visible spectra were obtained on a Gilford 250 spectrophotometer, which, with the addition of a base-line reference compensator (Analog Multiplexer 6064) and thermoprogrammer, auto four cell programmer and thermoelectric cell holder 2577, was used to obtain thermal denaturation curves; NMR spectra were obtained on a JOEL FQ-90-90MHZ spectrometer equipped with Fourier transform; and CD spectra were obtained on a Cary 61 spectrophotometer. All elemental analyses were within ±0.4% of the theoretical values. Actinomycin D, batch no. NCS 3053, lot L554651-0-10, was provided by Natural Products Branch, National Cancer Institute, Silver Spring, Md. Calf thymus DNA type 1 was purchased from Sigma Chemical Co.

[1] = test system: human lymphoblastic leukemic cells (CCRF-CEM); experiment: In vitro growth-inhibitory activity against human lymphoblastic leukemic cells (CCRF-CEM) in log phase; format: cell-based; details: for IC50: Homo sapiens, final growth medium contained 1% Me2SO, log phase, read-out: ID50 (in vitro growth inhibition, CCRF-CEM)
Experimental: ^b Using human lymohoblastic leukemia cells in logplastic growth.
Compounds were dissolved in Me2 So medium, final growth medium

normal CDF1 male mice = experiment: Maximum tolerated dose (LD10) in normal, tumor-free CDF1 male mice; format: in vivo; details: for MTD (maximum tolerated dose, lethal for 10% of normal mice; = LD10): deaths during 21 days; for MTD dose as multiple of the MTD dose for AMD: q4d 1, 5, 9 schedule; for fold less toxic than AMD: qd 1-4 schedule
Experimental: ^c MTD (maximum tolerated dose) is the lethal dose
(milligrams/kilogram) for 10% normal CDF1 male mice (18-23 g);
were calculated from a plot of log dose vs. percent mortality. Average of
two to three experiments.
Biological Experiments. Determination of LD10 Values. Tumor-free CDF1 male mice weighing 18-23 g were given a broad range of doses of drugs in 10% dimethyl sulfoxide-saline on either days 1, 5 and 9 or on 4 successive days. Drugs were administered intraperitoneally (ip).
The maximum tolerated doses of AMD and analogues that caused deaths in only 10% of the tested animals in 21 days were recorded as MTD. The results are an average of two experiments in each. The MTD values obtained following schedules q4d 1, 5, 9 (three injections) and qd 1-4 (four injections) are recorded in Table IV. These doses are the same as LD10 (lethal dose of 10% of tumor-free animals in 21 days).

[2] = In vivo metabolic transformation and urinary excretion; design: species or system rat; details: metabolites as conjugates of 4b
Experimental: The therapeutic indexes of both 3b and 4b in qd 1-4 and q4d 1, 5, 9 schedules of treatment are calculated and expressed in Table IV. […] These and other unidentified polar metabolites are excreted at about two to three times the rate of AMD in rat urine. This process of in vivo metabolic transformation and fast excretion appears to play a major role in reducing the in vivo toxicity factor of 3b and 4b.

calf thymus DNA = experiment: DNA binding by visible absorption and CD spectra of DNA (P)-drug complex; details: mole ratio DNA (P)/analogue = 10:1; 3b, 4b and 5b compared; 1.0×10^-5 M, pH 7
Text: In FIG. 1, absorption (top) and circular dichroism (bottom) spectra in 0.01 M phosphate buffer (pH7) containing EDTA (10^-5 M) and Me2 SO (5%): 3b (...), 4b (---), 5b (--). Concentration of drug in each case was 1.0×10^-5 M. In this respect, they are almost indistinguishable from the known analogue 7-methoxyactinomycin D (5b), whose structure and physical properties we have previously reported. The absorption spectra of all these analogues in aqueous buffer are also almost superimposable. […] The absorption spectrum of the analogues above 240 nm is mainly due to the electronic configuration of the tricyclic chromophore. The CD spectrum in the same wavelength region is an indicator of peptide conformation in actinomycin analogues, because it is the peptide lactone ring that confers optical activity on the nearly planar chromophore. The nature of the CD spectra (3b, 4b and 5b) asserts that in these analogues there is an identical relationship between the chromophores and peptide lactones. This relationship is very important, because during binding to DNA, AMD and some analogues are known to rely on the cooperative role between the chromophore and the peptide lactones for their highly specific DNA-binding property.
Any change in the configurations of the peptide lactones on binding to DNA is generally expressed in the CD spectra of the analogue-DNA complexes. […] The changes in the visible absorption spectra of 3b, 4b and 5b and also their CD spectra observed after adding calf thymus DNA [mole ratio of DNA (P)/analogue=10:1] are identical (FIG. 2). In FIG. 2, the absorption (top) and CD spectra of the DNA (P)-drug complex (ratio 10:1). Concentrations, buffer and line types are as in FIG. 1.

[3] = three injections ip, q4d 1, 5, 9

Row | SMILES | DNA melting profile / ΔTm character of the DNA complex (DNA) | IC50 [1] | times more cytotoxic than AMD ([1]; vs AMD) | MTD (maximum tolerated dose, lethal for 10% of normal mice; = LD10) (normal CDF1 male mice; four injections ip, qd 1-4) | MTD dose as multiple of the MTD dose for AMD (normal CDF1 male mice) | fold less toxic than AMD (normal CDF1 male mice) | MTD (maximum tolerated dose, lethal for 10% of normal mice; = LD10) (normal CDF1 male mice; [3]) | in vivo metabolic transformation [2] | changes in visible absorption and CD spectra after adding calf thymus DNA (calf thymus DNA) | Tm (ΔTm = Tm of DNA-drug complex minus Tm of DNA) (DNA; drug 1.4 × 10^-4 M, DNA (P) 1.4 × 10^-3 M, 0.01 M phosphate buffer pH 7.0, EDTA, 5% dimethyl sulfoxide) | times less cytotoxic than AMD ([1]; vs AMD)
1 | Cc1c2oc3c(C)c(OCC4CO4)cc(C(=O)N[C@@H]4C(=O)N[C@H](C(C)C)C(=O)N5CCC[C@H]5C(=O)N(C)CC(=O)N(C)[C@@H](C(C)C)C(=O)O[C@@H]4C)c3nc-2c(C(=O)N[C@@H]2C(=O)N[C@H](C(C)C)C(=O)N3CCC[C@H]3C(=O)N(C)CC(=O)N(C)[C@@H](C(C)C)C(=O)O[C@@H]2C)c(N)c1=O (stereo partly shown) [Compound 3b, 7-(2,3-Epoxypropoxy)actinomycin D] | very broad | 0.009 µg/mL (≈ 0.00678 µM) | about sevenfold | 1.6 milligrams/kilogram | 14 fold | 11 fold | 3.6 milligrams/kilogram | transformed in vivo to highly polar metabolites | identical | – | –
2 | Cc1c2oc3c(C)c(OCC(O)CO)cc(C(=O)N[C@@H]4C(=O)N[C@H](C(C)C)C(=O)N5CCC[C@H]5C(=O)N(C)CC(=O)N(C)[C@@H](C(C)C)C(=O)O[C@@H]4C)c3nc-2c(C(=O)N[C@@H]2C(=O)N[C@H](C(C)C)C(=O)N3CCC[C@H]3C(=O)N(C)CC(=O)N(C)[C@@H](C(C)C)C(=O)O[C@@H]2C)c(N)c1=O (stereo partly shown) [Compound 4b, 7-(2,3-Dihydroxypropoxy) actinomycin D] | sharp and smooth | 0.085 µg/mL (≈ 0.0632 µM) | – | 1.4 milligrams/kilogram | 7 fold | 9 fold | 1.8 milligrams/kilogram | transformed in vivo to highly polar metabolites | identical | 5.1 ± 0.15 °C | about 1.5 times
